Experimental data: the supplement of paper PMC4862054

How the values were obtained:
Details in all cases: incubation time: 72 h
[1] = system: MFM-223; assay: drug sensitivity score (DSS), CellTiter-Glo (DSS (AUC-based score)); higher = stronger drug effect (viability inhibition or cytotoxicity); extreme values may be limits of the assay
How it was run: (§1)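 Breast cancer cell lines, seeded as 20 µl suspension, were incubated 72 h with compound in 384-well plates at 5 concentrations in 10-fold steps over a 10,000-fold range set for each compound. Fluorescence from CellTox Green was read at 485/520 nm before CellTiter-Glo luminescence, which was read after 10 min at room temperature. Every plate was normalised to 0.1 % DMSO and a positive kill control, and the drug sensitivity score was taken from the area under the fitted dose-response curve.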

[2] = system: CAL-120; assay: as above
How it was run: as §1

[3] = system: DU-4475; assay: as above
How it was run: as §1

[4] = system: HCC1143; assay: as above
How it was run: as §1

[5] = system: Hs578T; assay: as above
How it was run: as §1

[6] = system: BT-549; assay: as above
How it was run: as §1

[7] = system: HCC1937; assay: as above
How it was run: as §1

[8] = system: HDQ-P1; assay: drug sensitivity score (DSS), CellTox Green (DSS (AUC-based score)); higher = stronger drug effect (viability inhibition or cytotoxicity); extreme values may be limits of the assay
How it was run: as §1

[9] = system: MFM-223; assay: as above
How it was run: as §1

[10] = system: CAL-120; assay: as above
How it was run: as §1

[11] = system: CAL-148; assay: as above
How it was run: as §1

[12] = system: DU-4475; assay: as above
How it was run: as §1

[13] = system: HCC1599; assay: as above
How it was run: as §1

[14] = system: MDA-MB-231; assay: as above
How it was run: as §1

[15] = system: MDA-MB-436; assay: as above
How it was run: as §1

[16] = system: BT-474; assay: as above
How it was run: as §1

[17] = system: CAL-51; assay: as above
How it was run: as §1

[18] = system: MDA-MB-453; assay: as above
How it was run: as §1

[19] = system: HCC1143; assay: as above
How it was run: as §1

[20] = system: Hs578T; assay: as above
How it was run: as §1

[21] = system: MDA-MB-468; assay: as above
How it was run: as §1

[22] = system: BT-549; assay: as above
How it was run: as §1

[23] = system: HCC1937; assay: as above
How it was run: as §1

[24] = system: CAL-85-1; assay: as above
How it was run: as §1

[25] = system: MCF-10A; assay: as above
How it was run: as §1

Structure (SMILES) | drug sensitivity score [1] | drug sensitivity score [2] | drug sensitivity score [3] | drug sensitivity score [4] | drug sensitivity score [5] | drug sensitivity score [6] | drug sensitivity score [7] | drug sensitivity score [8] | drug sensitivity score [9] | drug sensitivity score [10] | drug sensitivity score [11] | drug sensitivity score [12] | drug sensitivity score [13] | drug sensitivity score [14] | drug sensitivity score [15] | drug sensitivity score [16] | drug sensitivity score [17] | drug sensitivity score [18] | drug sensitivity score [19] | drug sensitivity score [20] | drug sensitivity score [21] | drug sensitivity score [22] | drug sensitivity score [23] | drug sensitivity score [24] | drug sensitivity score [25]
CS(=O)(=O)N1CCN(Cc2cc3nc(-c4cccc5[nH]ncc45)nc(N4CCOCC4)c3s2)CC1 [Pictilisib] | 7.5 | 7.47 | 1.25 | 7.14 | 7.69 | 9.15 | 5.69 | 0 | 4.88 | 0 | 9.53 | 0 | 0 | 0 | 0 | 1.54 | 4.02 | 0 | 0 | 0 | 0 | 0 | 0 | 3.76 | 7.08
O=C(NC[C@H](O)CO)c1ccncc1Nc1ccc(I)cc1F [Pimasertib] | 1.68 | 5.16 | 32.3 | 0 | 2.79 | 0.686 | 2.69 | 0 | 0 | 2.8 | 0 | 9.13 | 0 | 12.2 | 0 | 2.1 | 0 | 0 | 0 | 0 | 0 | 0 | 0 | 6.45 | 0
O=C(CCBr)N1CCN(C(=O)CCBr)CC1 [Pipobroman] | 0 | 0 | 0 | 0 | 0 | 0 | 0 | 0 | 0 | 0 | 0 | 0 | 0 | 0 | 0 | 0 | 0 | 0 | 1.77 | 0 | 0 | 0 | 0 | 0 | 0
c1cc(CN2CCCNCCNCCCNCC2)ccc1CN1CCCNCCNCCCNCC1 [Plerixafor] | 0 | 0 | 0 | 0 | 0 | 0 | 0 | 0 | 0 | 0 | 0 | 0 | 0 | 0 | 0 | 0 | 0 | 0 | 0 | 0 | 4.79 | 0 | 0 | 0 | 0
Cn1cc(CNCC2CCN(c3ncc(C(=O)NO)cn3)CC2)c2ccccc21 [Quisinostat] | 9.28 | 12.3 | 16.2 | 16.7 | 13.7 | 11.9 | 8.41 | 1.56 | 4.71 | 13.6 | 14.8 | 2.71 | 1.48 | 13.6 | 0 | 11 | 10.9 | 0.347 | 2.18 | 13.2 | 18.9 | 0 | 0 | 20.1 | 0
CNC(=O)c1cc(Oc2ccc(NC(=O)Nc3ccc(Cl)c(C(F)(F)F)c3)cc2)ccn1 [Sorafenib] | 0 | 0 | 0 | 0 | 0 | 0 | 0 | 0 | 0 | 0 | 0 | 0 | 0 | 0 | 0 | 0 | 0 | 0 | 0 | 0 | 0 | 0 | 0 | 0 | 0
CCN(CC)CCNC(=O)c1c(C)[nH]c(/C=C2\C(=O)Nc3ccc(F)cc32)c1C [Sunitinib] | 0 | 0 | 0 | 0 | 0 | 0 | 0 | 0 | 0 | 0 | 0 | 0 | 0 | 0 | 0 | 0 | 0 | 0 | 0 | 2.45 | 0 | 0 | 0 | 0 | 0
CC[C@@]1(O)C(=O)OCc2c1cc1n(c2=O)Cc2cc3c(CN(C)C)c(O)ccc3nc2-1 [Topotecan] | 0 | 5.11 | 14.6 | 9.67 | 1.55 | 10.8 | 6.32 | 0.486 | 2.66 | 3.76 | 24.6 | 0 | 2.71 | 10.2 | 8.04 | 0.158 | 19.5 | 0 | 0 | 0 | 8.87 | 0 | 3.78 | 7.11 | 1.98
